Data reported in ChEMBL document CHEMBL1828556, “Synthesis, hypnotic properties and molecular modeling studies of 1,2,7,9-tetraaza-spiro[4.5]dec-2-ene-6,8,10-triones” (Eur J Med Chem, 2011).

What was measured:
[1] = tested on: Mus musculus; test: Potentiation of sodium thiopental-induced hypnotic/sedative activity in Albino mouse assessed as sleeping time at 25 mg/kg, ip administered 1 hr prior challenge relative to control; assay type: functional; details: route intraperitoneal
[2] = tested on: Mus musculus; test: Potentiation of sodium thiopental-induced hypnotic/sedative activity in Albino mouse assessed as time elapsed between injection of sodium thiopental and loss of righting reflex at 25 mg/kg, ip administered 1 hr prior challenge (Rvb =2.66 +/- 0.23 mins); assay type: functional; details: route intraperitoneal
[3] = tested on: Mus musculus; test: Toxicity in Albino mouse assessed as mortality at 250 mg/kg, ip after 24 hrs; assay type: organism-based; set-up: dose 250 mg/kg, route intraperitoneal; details: in vivo
[4] = tested on: Mus musculus; test: Toxicity in Albino mouse assessed as mortality at 500 mg/kg, ip after 24 hrs; assay type: organism-based; set-up: dose 500 mg/kg, route intraperitoneal; details: in vivo
[5] = tested on: Mus musculus; test: Toxicity in Albino mouse assessed as toxic symptoms at 250 mg/kg, ip after 24 hrs; assay type: organism-based; set-up: dose 250 mg/kg, route intraperitoneal; details: in vivo
[6] = tested on: Mus musculus; test: Toxicity in Albino mouse assessed as toxic symptoms at 750 mg/kg, ip after 24 hrs; assay type: organism-based; set-up: dose 750 mg/kg, route intraperitoneal; details: in vivo
[7] = tested on: Mus musculus; test: Toxicity in Albino mouse assessed as mortality at 750 mg/kg, ip after 24 hrs; assay type: organism-based; set-up: dose 750 mg/kg, route intraperitoneal; details: in vivo
[8] = tested on: Mus musculus; test: Toxicity in Albino mouse assessed as toxic symptoms at 500 mg/kg, ip after 24 hrs; assay type: organism-based; set-up: dose 500 mg/kg, route intraperitoneal; details: in vivo

| SMILES | Activity [1] [%] | Time [2] [min] | Activity [3] | Activity [4] | Activity [5] | Activity [6] | Activity [7] | Activity [8] |
| --- | --- | --- | --- | --- | --- | --- | --- | --- |
| CN1C(=O)N(C)C(=O)C2(C1=O)C(c1ccc(Cl)cc1)C(c1ccccc1)=NN2c1ccccc1 (stereo not drawn) | 20 | 3.47 | – | – | – | – | – | – |
| CN1C(=O)N(C)C(=O)C2(C1=O)C(c1ccc(N(C)C)cc1)C(c1ccccc1)=NN2c1ccccc1 (stereo not drawn) | 299.4 | 2.91 | Non-toxic | Non-toxic | Non-toxic | Non-toxic | Non-toxic | Non-toxic |
| CN1C(=O)N(C)C(=O)C2(C1=O)C(c1ccc(F)cc1)C(c1ccccc1)=NN2c1ccccc1 (stereo not drawn) | 358.6 | 2 | Non-toxic | Non-toxic | Non-toxic | Non-toxic | Non-toxic | Non-toxic |
| Cc1ccc(C2C(c3ccccc3)=NN(c3ccccc3)C23C(=O)N(C)C(=O)N(C)C3=O)cc1 (stereo not drawn) | 311.3 | 2.92 | Non-toxic | Non-toxic | Non-toxic | Non-toxic | Non-toxic | Non-toxic |
| COc1ccc(C2C(c3ccccc3)=NN(c3ccccc3)C23C(=O)N(C)C(=O)N(C)C3=O)cc1 (stereo not drawn) | -20.3 | 5.25 | – | – | – | – | – | – |
| CN1C(=O)N(C)C(=O)C2(C1=O)C(c1ccccc1)C(c1ccccc1)=NN2c1ccccc1 (stereo not drawn) | 1.3 | 3 | – | – | – | – | – | – |
| CN1C(=O)N(C)C(=O)C2(C1=O)C(c1ccc(Cl)cc1)C(c1ccccc1)=NN2c1cccc(Cl)c1 (stereo not drawn) | 340.9 | 2.3 | Non-toxic | Non-toxic | Non-toxic | Non-toxic | Non-toxic | Non-toxic |
| CN1C(=O)N(C)C(=O)C2(C1=O)C(c1ccccc1)C(c1ccccc1)=NN2c1cccc(Cl)c1 (stereo not drawn) | 192 | 1.85 | – | – | – | – | – | – |
| CN1C(=O)N(C)C(=O)C2(C1=O)C(c1cccs1)C(c1ccccc1)=NN2c1ccccc1 (stereo not drawn) | -25.8 | 1.79 | – | – | – | – | – | – |
| CN1C(=O)N(C)C(=O)C2(C1=O)C(c1ccc(Cl)cc1Cl)C(c1ccccc1)=NN2c1ccccc1 (stereo not drawn) | 501.2 | 2.12 | Non-toxic | Non-toxic | Non-toxic | Non-toxic | Non-toxic | Non-toxic |
| Cc1ccc(C2C(c3ccccc3)=NN(c3ccccc3)C23C(=O)N(C)C(=O)N(C)C3=O)o1 (stereo not drawn) | 904 | 2.66 | Non-toxic | Non-toxic | Non-toxic | Non-toxic | Non-toxic | Non-toxic |
